Results from patent US6255347A (priority 1997, dated 2001).
Entries after “also recorded” stand apart in the source; their conditions may differ. Blank lines part the entries; values can stand above or below the compound they belong to.

Key:
[1] = system: APPs secretion by NIH 3T3 cell lines; details: 50 μM; for Density of APPs band: 20 h culture, n = 2, mean ± S.D.
[2] = system: APPs secretion by NIH 3T3 cell lines; assay: cells; details: Mus musculus, NIH3T3, 20 h, read-out: fold increase of APPs secretion
risk of AD = details: in vivo; cited from earlier work
[3] = cited from earlier work
[4] = cited from earlier work; remark: listed apart in the source
NIH 3T3 cells = assay: Foci formation assay, inhibition of PMA induced neoplastic transformation of NIH 3T3 cells; type: cell-based; details: PMA 0.02 μg/ml, 2% FBS; for inhibition of PMA induced foci formation / neoplastic transformation: 6 weeks, ibuprofen 10 or 100 μg/ml
Protocol: (§1) NIH 3T3 cells (American Type Culture Collection, Rockville, Md.) were cultured in DMEM supplemented with 10% FBS inoculated at 10^4 cells/35 […] dish. […] PMA and ibuprofen were dissolved in DMSO and stored in 5% DMSO stock solutions that were diluted a 1000-fold with culture media prior to use. […] The media containing freshly added PMA and ibuprofen were changed every 60 hours for both the foci formation assay and PKCα analysis by Western blot.
Subsequent to washing with a tris/ saline buffer, the cells were stained with a solution of 4% aqueous Giemsa stain in phosphate buffer (pH 7.0). Foci of transformed cells were then visible by eye due to their high local density and verified by under light microscopy.

PKCα = PKCα translocation in NIH 3T3 cells (subcellular fractionation, Western blot); type: cell-based; details: 10 μg/ml; for inhibition of PKCα translocation from cytosol to nuclear compartments: PMA 4 hours; for inhibition of PKCα translocation, racemate versus enantiomers: particularly 2 weeks of PMA
Protocol: as §1
The cells were washed twice with phosphate-buffered saline (PBS) at 37° C. and subsequently lysed and scraped in 1 ml ice-cold protein lysis buffer (20 mM Tris-HCl, pH7.4, 2 mM EGTA, 2 mM EDTA, […] leupeptin and […] aprotinin) at 4° C. […] Briefly, cells were homogenized 10× in 15 ml glass homogenizer with a tight-fitting pestle and centrifuged at 900×g for 10 min. The resulting supernatant was then centrifuged at 100,000×g for 60 min to produce a nucleus-free membrane fraction (pellet) and a cytosol fraction (supernatant) for Western blots. The 900×g nuclear pellet was suspended in the 2 ml lysis buffer containing 10% sucrose and 0.1% Triton X-100 and washed twice by centrifuging at 1000×g for 10 min, then resuspended in 1 ml of the same buffer without Triton X-100 for Western blots. The purity of the fractions was monitored by light microscopy. […] The samples were stored at -70° C. until analysis.
15 μl of human plasma, 15 μl of rat plasma, CSF or 50 μg of rat brain protein were denatured with 35 μl of sample buffer at 95° C. for 4 min. Denatured proteins were separated by 10% SDS-polyacrylamide gel electrophoresis with a 50 μg or 20 μg protein load for each sample for APPs or PKC, respectively, and electrophoretically transferred from gel to nitrocellulose membrane. […] The immunoreactive bands were developed using enhanced chemilumenescence (ECL. Amersham Life Sci., Little Chalfont, UK), following extensive washing with the blocking buffer. The PKC bands were verified in each case by competitively blocking the signal with the peptide corresponding to each of PKCs. The bands were quantitated by scanning densitometry. Quantitative comparisons were made between samples processed simultaneously on one blot.

PKC = target: T1, PKC (Rattus norvegicus, UniProt P05696); assay: Protein kinase C activity assay (histone phosphorylation, partially purified rat brain PKC); type: biochemical; details: PMA stimulated; for concentration inhibiting PKC mediated histone phosphorylation: 2 min, 30° C.
T1 construct: Partially purified PKCα from rat brain; purchased Promega (Madison, Wis.); host or cells: rat brain (tissue enzyme, partially purified)
Protocol: The following were obtained from the Sigma Chemical Co. (St. […] Anti-PKCα antibody (affinity purified) and its C-terminal region peptide was obtained from Life Technologies (Gaithersburg, Md.). […] All other chemicals were of the highest available purity and were obtained from standard commercial sources. […] Following 2 min initial incubation at 30° C., kinase reactions were initiated by the addition of ^32 P-γ-ATP and enzyme and continued at 30° C. for 2 min. Control incubations contained all assay components except enzyme and ibuprofen. […] All samples were carried out in duplicate.

[5] = Chiral inversion of R- to S-ibuprofen in culture (HPLC); type: in vitro ADME; details: NIH 3T3 culture
Protocol: The concentration of the enantiomers of ibuprofen in cell culture media was determined by an HPLC procedure previously described for the enantiomers of ketoprofen (Grubb et al., 1996). The HPLC column consisted of a 5 μm (S,S)-Whelk-O1 stationary phase (250 mm×4.6 mm; Regis Technologies, Morton Grove, Ill.) eluted with a mobile phase of hexane/isopropyl alcohol/acetic acid (98/2/0.05) flowing at 0.8 ml/ min. […] Quantitation was achieved using peak area ratios with R-flurbiprofen as internal standard and ultraviolet absorbance at 254 nm. The limit of quantitation was set at 100 ng/ml.

rat stomach and duodenum = assay: Gastric ulcer index / gastroduodenal lesions in rat; type: in vivo
Protocol: Male Sprague-Dawley rats (12 month) were obtained from Harlan-Sprague-Dawley, Inc. (Indianapolis, Ind.) and housed under controlled conditions of temperature humidity and light/dark cycle. […] Rat blood, brain and 50 μl of cerebrospinal fluid were collected and stored at -70° C. for APPs and PKC analysis by Western blotting. Rat stomach and duodenum were collected for the quantitation of gastroduodenal lesions.
The rat stomach and first 12 cm of the duodenum were opened and carefully shed with saline to remove any residual debris and fixed in 10% buffered formaldehyde. Tissues were examined macroscopically (×10) for lesions and hemorrhages. The evaluation of lesions or hemorrhages was based on the ulcer index (UI) reported by Leyck et al. (1985) and expressed as the sum total of lesions per treatment. The scoring units used ranged from 0 to 5, where zero represents no macroscopically visible lesions; 1 represents one to three small ulcers less than 4 mm; 2 represents more than three small ulcers; 3 represents ulcer hemorrhages with several small ulcers; 4 represents large (>4 mm) ulcers; 5 indicates tissue perforation.

cyclooxygenase = details: cited from earlier work
[6] = system: human neoplastic diseases; details: cited from earlier work
animal tumors = details: in vivo; cited from earlier work
APP = details: via activation of PKC; cited from earlier work

Compound: CC(C(=O)O)c1cccc(Oc2ccccc2)c1 (racemic) [RS-Fenoprofen]
Density of APPs band [1]: 6.36 ± 0.77 | fold induction at 50 µM [2]: 1.6

Compound: CC(=O)Oc1ccccc1C(=O)O [Aspirin]
APPs secretion (in words) ([1]; 20 h): failed to show an increased secretion of APPs | Density of APPs band [1]: 2.92 ± 0.43 | association with decreased risk of AD (risk of AD): not associated

Compound: O=NN(CCCl)C(=O)NCCCl [Carmustine, 1,3-bis (2-chloroethyl)-1-nitrosourea]
solubility (in words) ([3]; solvent): highly soluble in alcohol and lipids, and poorly soluble in water

Compound: O=NN(CCCl)C(=O)NC1CCCCC1 [Lomustine, 1-(2-chloro-ethyl)-3-cyclohexyl-1 nitrosourea]
tissue levels compared to plasma levels ([4]; 15 minutes after intravenous administration): comparable to plasma levels | radioactivity excreted as degradation products ([4]; oral 30 mg/m^2 to 100 mg/m^2, within 24 hours): about half | ionization ([3]; physiological pH): relatively unionized at a physiological pH

Compound: C[C@@H](C(=O)O)c1cccc(Oc2ccccc2)c1 [R-Fenoprofen]
Density of APPs band [1]: 5.32 ± 1.29 | fold induction at 50 µM [2]: 1.3

Compound: CC(C)Cc1ccc([C@@H](C)C(=O)O)cc1 [R-ibuprofen]
inhibition of foci formation, enantiomers compared to racemate (NIH 3T3 cells): more pronounced than that of the racemate; also recorded: more effective than the racemic mixture | inhibition of PMA induced foci formation / neoplastic transformation (NIH 3T3 cells): dramatically decreased; also recorded: inhibit the neoplastic transformation; also recorded: substantially inhibited | inhibition of PKCα translocation compared to antipode (PKCα; 4 hours PMA): more effective than its antipode | inhibition of PKCα translocation from cytosol to nuclear compartments (PKCα): clearly modulated the time dependent intracellular redistribution of PKCα | inhibition of PKCα translocation, racemate versus enantiomers (PKCα): more effective than the racemic mixture | concentration inhibiting PKC mediated histone phosphorylation (PKC): 1 µM | inhibition at 20 µM (PKC; read-out: maximal inhibition of PKC activity, at 20 μM): 53% | inversion of R- to S-ibuprofen [5]: No inversion of R- to S-ibuprofen was detectable; also recorded: did not occur | gastric ulcers, incidence (rat stomach and duodenum; rat, in vivo): one small gastric ulcer in 2 out of 4 rats | ulcers larger than 4 mm (rat stomach and duodenum; rat, in vivo): no ulcer larger than 4 mm | capability to inhibit cyclooxygenase (in words) (cyclooxygenase): very weak capability to inhibit cyclooxygenase

Compound: C[C@H](C(=O)O)c1cccc(Oc2ccccc2)c1 [S-Fenoprofen]
Density of APPs band [1]: 5.32 ± 1.53 | fold induction at 50 µM [2]: 1.3

concentration inhibiting PKC mediated histone phosphorylation (PKC): 1 µM
Compound: CC(C)Cc1ccc([C@H](C)C(=O)O)cc1 [S-ibuprofen]
inhibition of foci formation, enantiomers compared to racemate (NIH 3T3 cells): more pronounced than that of the racemate; also recorded: more effective than the racemic mixture | inhibition of PMA induced foci formation / neoplastic transformation (NIH 3T3 cells): dramatically decreased; also recorded: inhibit the neoplastic transformation; also recorded: substantially inhibited | inhibition of PKCα translocation from cytosol to nuclear compartments (PKCα): clearly modulated the time dependent intracellular redistribution of PKCα | inhibition of PKCα translocation, racemate versus enantiomers (PKCα): more effective than the racemic mixture | Bleeding site (B), column 1 (rat stomach and duodenum; 10 mg/kg bid, 7 days, column 1): 4 | gastropathy (in words) (rat stomach and duodenum; rat, in vivo): induced serious gastric ulcers and hemorrhage | capability to inhibit cyclooxygenase (in words) (cyclooxygenase): inhibition of cyclooxygenase activity by ibuprofen resides almost exclusively in the S-enantiomer | potency in suppressing prostaglandin formation, S- versus R-ibuprofen (cyclooxygenase; from arachidonic acid): approximately 100 times

Compound: CC[C@]1(O)C[C@@H]2CN(CCc3c([nH]c4ccccc34)[C@@](C(=O)OC)(c3cc4c(cc3OC)N(C)[C@H]3[C@@](O)(C(=O)OC)[C@H](OC(C)=O)[C@]5(CC)C=CCN6CC[C@]43[C@@H]65)C2)C1 [Vinblastine]
cases with significant improvement ([6]; lymphomas, particularly Hodgkin's disease): 50 to 90% | excreted in urine ([4]; in vivo): Approximately 15% | recovered in the feces ([4]; in vivo): about 10%

Compound: CC(=O)Nc1ccc(O)cc1 [acetaminophen]
association with decreased risk of AD (risk of AD): not associated

Compound: CS(=O)(=O)OCCCCOS(C)(=O)=O [busulfan, 1,4-butanediol dimethanesulfonate]
patients obtaining hematologic remission ([6]; previously untreated chronic myelogenous leukemia, adults): Approximately 90%

Compound: N[C@H](Cc1ccc(N(CCCl)CCCl)cc1)C(=O)O [medphalan]
activity against certain animal tumors versus melphalan (animal tumors): less active

Compound: CCCCCCCCCCCCCC(=O)O[C@@H]1[C@@H](C)[C@@]2(O)[C@@H](C=C(CO)C[C@]3(O)C(=O)C(C)=C[C@@H]23)[C@@H]2C(C)(C)[C@]12OC(C)=O [phorbol ester]
formation of APPs (APP): increase the formation of APPs | production of amyloidogenic fragments containing Aβ and Aβ (APP): reduce the production
